In experiment [1] the target is T1, BsVdcCD (Bacillus subtilis, UniProt P94405).
T1 construct: gene bsdC; VdcC and VdcD expressed in E. coli BL21(DE3), His tag on C-terminus of VdcC and/or N-terminus of VdcD; reconstituted in vitro with prFMN and Mn2+; with Phenolic acid decarboxylase subunit D
T1 sequence (P94405 1-473): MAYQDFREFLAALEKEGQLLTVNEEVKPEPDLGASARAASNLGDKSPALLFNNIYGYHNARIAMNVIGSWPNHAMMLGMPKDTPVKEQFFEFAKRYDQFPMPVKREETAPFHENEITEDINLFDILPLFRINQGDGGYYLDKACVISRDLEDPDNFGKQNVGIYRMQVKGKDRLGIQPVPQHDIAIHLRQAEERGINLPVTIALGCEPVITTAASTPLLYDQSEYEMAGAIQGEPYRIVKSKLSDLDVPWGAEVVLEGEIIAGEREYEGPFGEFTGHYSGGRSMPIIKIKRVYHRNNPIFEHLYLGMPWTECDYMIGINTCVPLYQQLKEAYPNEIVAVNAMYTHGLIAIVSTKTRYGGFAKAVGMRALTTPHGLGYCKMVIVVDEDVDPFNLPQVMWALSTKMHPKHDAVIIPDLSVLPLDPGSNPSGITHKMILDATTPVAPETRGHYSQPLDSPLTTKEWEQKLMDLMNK
T1 sequence (C0H3U9 1-75 partner): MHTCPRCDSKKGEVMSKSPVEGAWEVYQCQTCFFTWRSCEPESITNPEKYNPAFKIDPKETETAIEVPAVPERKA
The experiment can be described thus: overnight endpoint HPLC decarboxylation assay. Conditions: 5 mM substrate, 10 µM enzyme, prFMN, MnCl2, 100 mM KPi pH 6, anaerobic, 18 h. The format is biochemical.

Experiment [2] has as its target Sedimentibacter hydroxybenzoicus VdcC, untagged (Sedimentibacter hydroxybenzoicus). The experiment can be described thus: crystal structure; apo complexes; F222 closed (7AE4), P1 open (7AE5), P212121 ShVdcCD^V59X (7AE7); molecular replacement with E. coli UbiD domains.

Broadly, the stoichiometry N is a count of units in the complex or per binding partner.

Consider `COc1cc(C(=O)O)cc(OC)c1O` [syringic acid], for which, in experiment [1], the “overnight endpoint HPLC decarboxylation assay” value was “syringic acid, for which product formation could only be detected in the presence of BsVdcCD”.
“Sedimentibacter hydroxybenzoicus VdcC, untagged (enzyme)” came in with a stoichiometry N in experiment [2] of 6.
`COc1cc(C(=O)O)ccc1O` [vanillic acid]: the “overnight endpoint HPLC decarboxylation assay” value in experiment [1] was “the VdcC + VdcD reconstituted samples demonstrated considerable activity in contrast to isolated VdcC”.

(Values after paper PMC8379154, “UbiD domain dynamics underpins aromatic decarboxylation” (Nature Communications, 2021).)
